From BindingDB's records for doi:10.1021/jm2013997 (Oxagen, 2012) come the findings set out here.

The IC50 is the concentration at which inhibition is half-maximal. One may read the EC50 as the concentration giving half of the maximal effect.

A short description of assay [1]: Antagonist activity at CRTH2 in human eosinophils assessed as inhibition of PGD2-induced shape change by gated autofluorescence forward scatter analysis.
Assay [2] in a line: Partial antagonist activity at CRTH2 in human eosinophils assessed as inhibition of PGD2-induced shape change by FACS analysis. On the technique in general: A flow cytometer gives signals particle by particle.

For `C[C@H](Oc1ccc(F)cc1-c1ccc(C(=O)N2CCCC2(C)C)c(Cl)c1)C(=O)O`, in assay [1], the IC50 turned out to be 44 nM. Still for that read-out and setting: as for `CN(C)c1nc(Cc2ccc(NC(=O)c3ccc(C(F)(F)F)cc3)cc2)nc(N(C)C)c1CC(=O)O` [2-(4,6-bis(dimethylamino)-2-(4-(4-(trifluoromethyl)benzamido)benzyl)pyrimidin-5-yl)acetic acid], the figure is 626 nM. For the compound `COc1ccc2c(c1)c(CC(=O)O)c(C)n2C(=O)c1ccc(Cl)cc1` [indometacin], the EC50 in assay [2] amounted to 389 nM.
